Assay results reported in article PMC6934184, “Selective DNA-PKcs inhibition extends the therapeutic index of localized radiotherapy and chemotherapy” (The Journal of Clinical Investigation, 2019).

Target: T1, MAPKAPK2 (Homo sapiens, UniProt P49137)
T1 construct: purchased Thermo Fisher Scientific (Life Technologies) SelectScreen
Assay: SelectScreen Z'LYTE
Type: biochemical
Method in brief: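 NU5455 was profiled across the SelectScreen Broad panel of kinase activity and binding assays. Z'LYTE reactions such as CSF1R ran at apparent Km ATP, while the Adapta CAMK1 assay used ATP listed as 10. Values are given as percent.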

T1 sequence (P49137 whole entry): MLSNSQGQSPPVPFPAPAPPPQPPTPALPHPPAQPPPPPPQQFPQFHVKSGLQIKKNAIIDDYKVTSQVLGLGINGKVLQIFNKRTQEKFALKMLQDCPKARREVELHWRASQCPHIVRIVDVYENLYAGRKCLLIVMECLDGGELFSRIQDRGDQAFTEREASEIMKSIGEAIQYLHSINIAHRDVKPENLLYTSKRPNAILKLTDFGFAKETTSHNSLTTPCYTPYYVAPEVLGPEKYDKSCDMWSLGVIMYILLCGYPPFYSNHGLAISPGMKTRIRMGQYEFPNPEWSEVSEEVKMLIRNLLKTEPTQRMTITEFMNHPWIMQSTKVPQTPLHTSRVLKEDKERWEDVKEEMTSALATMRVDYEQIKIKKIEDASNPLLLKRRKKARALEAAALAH

**Q.** How did the inhibition at 1 µM turn out when `CN(C(=O)CN1CCOCC1)c1ccc2sc3c(-c4cccc5c(=O)cc(N6CC7CCC(C6)O7)oc45)cccc3c2c1` [NU5455] was run?
**A.** -3.1%
